The text below walks through data of publication PMC5974720, “Urate transport function of rat sodium‐dependent nucleobase transporter 1” (Physiological Reports, 2018).

The target of series [1] is T1, rat sodium-dependent nucleobase transporter 1 (rSNBT1) (Rattus norvegicus, UniProt D2KX48).
T1 construct: gene Slc23a4
T1 sequence (D2KX48 1-614): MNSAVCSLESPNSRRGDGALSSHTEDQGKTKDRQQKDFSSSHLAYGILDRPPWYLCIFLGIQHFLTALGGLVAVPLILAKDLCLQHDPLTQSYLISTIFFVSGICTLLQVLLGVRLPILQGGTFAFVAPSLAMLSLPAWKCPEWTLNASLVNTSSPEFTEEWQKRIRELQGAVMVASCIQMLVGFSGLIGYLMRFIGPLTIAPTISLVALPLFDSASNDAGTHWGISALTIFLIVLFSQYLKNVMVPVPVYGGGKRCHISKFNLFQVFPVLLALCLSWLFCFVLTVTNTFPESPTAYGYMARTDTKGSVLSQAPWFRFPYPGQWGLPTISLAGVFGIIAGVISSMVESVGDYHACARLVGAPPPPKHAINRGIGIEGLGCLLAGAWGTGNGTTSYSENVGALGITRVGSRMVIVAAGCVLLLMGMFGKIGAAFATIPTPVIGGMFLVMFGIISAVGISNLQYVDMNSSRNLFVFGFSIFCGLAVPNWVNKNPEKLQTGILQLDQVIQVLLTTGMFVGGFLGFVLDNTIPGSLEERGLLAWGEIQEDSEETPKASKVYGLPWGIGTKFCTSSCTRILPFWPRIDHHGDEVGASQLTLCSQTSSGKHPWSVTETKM
Nature of the series: inhibition of rSNBT1-specific […]urate uptake in stably transfected MDCKII cells. The class given is cell-based.

Series [2] has as its target T1, rat sodium-dependent nucleobase transporter 1 (rSNBT1). Nature of the series: inhibition of rSNBT1-specific […]urate uptake in stably transfected MDCKII cells; [3H]uracil uptake in transfected HEK293 cells. The class given is cell-based.
Series [3] concerns the target T2, human organic anion transporter 1 (OAT1) (Homo sapiens, UniProt Q4U2R8).
T2 construct: gene SLC22A6
T2 sequence (Q4U2R8 1-563): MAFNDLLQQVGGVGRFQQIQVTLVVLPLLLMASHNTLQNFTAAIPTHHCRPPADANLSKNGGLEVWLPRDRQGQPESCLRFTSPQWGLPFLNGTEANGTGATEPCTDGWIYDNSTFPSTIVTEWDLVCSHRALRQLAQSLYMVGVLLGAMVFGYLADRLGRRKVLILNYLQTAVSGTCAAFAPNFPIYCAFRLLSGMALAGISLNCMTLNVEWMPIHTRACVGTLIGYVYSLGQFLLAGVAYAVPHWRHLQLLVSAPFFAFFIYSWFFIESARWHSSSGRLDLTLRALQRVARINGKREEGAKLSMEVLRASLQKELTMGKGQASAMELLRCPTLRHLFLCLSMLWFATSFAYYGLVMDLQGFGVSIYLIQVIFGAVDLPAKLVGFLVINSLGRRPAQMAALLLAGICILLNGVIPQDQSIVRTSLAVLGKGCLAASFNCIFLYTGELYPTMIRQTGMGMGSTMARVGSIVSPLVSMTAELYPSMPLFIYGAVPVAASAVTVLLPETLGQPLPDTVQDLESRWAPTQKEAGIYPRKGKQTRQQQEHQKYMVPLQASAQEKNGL
Nature of the series: […]urate uptake in transiently transfected HEK293 cells. The class given is cell-based.

Series [4] has as its target T3, human URAT1 (urate transporter 1) (Homo sapiens, UniProt Q96S37).
T3 construct: gene SLC22A12
T3 sequence (Q96S37 1-553): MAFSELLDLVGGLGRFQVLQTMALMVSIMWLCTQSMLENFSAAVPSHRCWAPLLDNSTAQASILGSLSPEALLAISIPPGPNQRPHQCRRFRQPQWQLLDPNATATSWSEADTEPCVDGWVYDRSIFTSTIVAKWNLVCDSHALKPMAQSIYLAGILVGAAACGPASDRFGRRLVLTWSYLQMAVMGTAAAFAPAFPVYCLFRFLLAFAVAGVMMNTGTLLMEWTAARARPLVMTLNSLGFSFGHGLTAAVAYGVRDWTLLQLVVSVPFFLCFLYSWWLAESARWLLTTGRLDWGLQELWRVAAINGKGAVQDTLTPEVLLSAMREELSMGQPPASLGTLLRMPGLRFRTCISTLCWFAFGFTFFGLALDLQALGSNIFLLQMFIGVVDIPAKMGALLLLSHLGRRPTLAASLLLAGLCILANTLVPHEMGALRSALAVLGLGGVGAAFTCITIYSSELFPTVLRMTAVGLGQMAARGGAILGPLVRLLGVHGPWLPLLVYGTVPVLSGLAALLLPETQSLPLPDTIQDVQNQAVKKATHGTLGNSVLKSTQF

For series [5], the target named is T4, human OAT3 (Homo sapiens, UniProt Q8TCC7).
T4 construct: gene SLC22A8
T4 sequence (Q8TCC7 1-542): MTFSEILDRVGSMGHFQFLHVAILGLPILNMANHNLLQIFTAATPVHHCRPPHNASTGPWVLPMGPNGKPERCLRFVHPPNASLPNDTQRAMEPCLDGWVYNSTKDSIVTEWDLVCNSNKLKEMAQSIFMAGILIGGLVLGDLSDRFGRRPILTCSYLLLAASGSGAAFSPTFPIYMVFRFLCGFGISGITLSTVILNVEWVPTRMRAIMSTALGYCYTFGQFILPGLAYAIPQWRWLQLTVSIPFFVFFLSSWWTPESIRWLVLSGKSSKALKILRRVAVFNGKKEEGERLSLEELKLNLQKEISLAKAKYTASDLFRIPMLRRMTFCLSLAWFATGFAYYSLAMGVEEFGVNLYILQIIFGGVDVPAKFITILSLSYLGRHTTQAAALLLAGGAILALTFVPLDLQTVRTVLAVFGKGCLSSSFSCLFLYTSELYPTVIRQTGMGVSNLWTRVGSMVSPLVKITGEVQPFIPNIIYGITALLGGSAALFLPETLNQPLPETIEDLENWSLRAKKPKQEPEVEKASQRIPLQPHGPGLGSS
Put plainly: […]urate uptake in transiently transfected HEK293 cells.

Series [6] has as its target T5, rat breast cancer resistance protein (rBCRP) (Rattus norvegicus, UniProt Q80W57).
T5 construct: gene Abcg2
T5 sequence (Q80W57 1-657): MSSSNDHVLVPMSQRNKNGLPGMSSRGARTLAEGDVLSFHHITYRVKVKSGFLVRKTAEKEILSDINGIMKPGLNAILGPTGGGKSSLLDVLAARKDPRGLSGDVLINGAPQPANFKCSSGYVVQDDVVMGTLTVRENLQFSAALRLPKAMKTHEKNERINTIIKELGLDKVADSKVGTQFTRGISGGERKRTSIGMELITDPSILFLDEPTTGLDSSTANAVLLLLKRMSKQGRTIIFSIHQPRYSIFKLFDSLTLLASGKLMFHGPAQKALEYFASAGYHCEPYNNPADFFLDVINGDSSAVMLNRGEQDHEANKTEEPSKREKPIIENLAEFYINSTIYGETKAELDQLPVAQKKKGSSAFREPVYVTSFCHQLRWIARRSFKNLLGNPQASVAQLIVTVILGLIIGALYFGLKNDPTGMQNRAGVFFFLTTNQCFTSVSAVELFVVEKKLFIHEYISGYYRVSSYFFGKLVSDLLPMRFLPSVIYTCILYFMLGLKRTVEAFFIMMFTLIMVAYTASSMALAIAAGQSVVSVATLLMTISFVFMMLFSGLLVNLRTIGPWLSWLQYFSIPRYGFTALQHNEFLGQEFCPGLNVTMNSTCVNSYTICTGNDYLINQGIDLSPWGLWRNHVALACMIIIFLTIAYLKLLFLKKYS
Nature of the series: inhibition of rBCRP-mediated urate efflux in HEK293 cells co-expressing rSNBT1 ([…]). It counts as cell-based.

Substrate in series [7]: O=c1[nH]c(=O)c2[nH]c(=O)[nH]c2[nH]1
Nature of the series: cells, lysate or membranes. The class given is cell-based, Rattus norvegicus. The following applies: Na+ likely to share the same substrate recognition site with uracil.

As to `O=c1[nH]cnc2nc[nH]c12` [Hypoxanthine], the IC50 in series [1] (read-out: IC50) is 10.1 ± 2.4 µM.

Regarding `O=c1cc[nH]c(=O)[nH]1` [Uracil], half-maximal inhibition in series [2] (IC50) was put at 28.4 ± 8.5 µM.

Take `O=c1[nH]c(=O)c2[nH]c(=O)[nH]c2[nH]1` [urate]: the “[14C]urate uptake in transiently transfected HEK293 cells” value in series [3] is reported as “When transiently introduced into HEK293 cells, all those transporters raised urate uptake, but to lesser extents than rSNBT1”; in series [4] it was “When transiently introduced into HEK293 cells, all those transporters raised urate uptake, but to lesser extents than rSNBT1”; in series [5], “When transiently introduced into HEK293 cells, all those transporters raised urate uptake, but to lesser extents than rSNBT1”.

Consider `Nc1nc2nc[nH]c2c(=O)[nH]1` [Guanine], for which, in series [1], half-maximal inhibition (IC50) was put at 2.7 ± 0.8 µM.

Turning to `Cc1c[nH]c(=O)[nH]c1=O` [Thymine], the IC50 in series [1] (read-out: IC50) was 8.8 ± 2.5 µM.

For the molecule `COc1ccc2c3c([nH]c2c1)[C@H](CC(C)C)N1C(=O)[C@H](CCC(=O)OC(C)(C)C)NC(=O)[C@@H]1C3` [Ko143], the “inhibition of rBCRP-mediated urate efflux in HEK293 cells co-expressing rSNBT1” value in series [6] is on record as “Ko143 was effective in inhibiting rBCRP‐mediated urate efflux almost completely at that concentration”.

B1: rat sodium-dependent nucleobase transporter 1 (rSNBT1) (Rattus norvegicus) (protein)
chain: MNSAVCSLESPNSRRGDGALSSHTEDQGKTKDRQQKDFSSSHLAYGILDRPPWYLCIFLGIQHFLTALGGLVAVPLILAKDLCLQHDPLTQSYLISTIFFVSGICTLLQVLLGVRLPILQGGTFAFVAPSLAMLSLPAWKCPEWTLNASLVNTSSPEFTEEWQKRIRELQGAVMVASCIQMLVGFSGLIGYLMRFIGPLTIAPTISLVALPLFDSASNDAGTHWGISALTIFLIVLFSQYLKNVMVPVPVYGGGKRCHISKFNLFQVFPVLLALCLSWLFCFVLTVTNTFPESPTAYGYMARTDTKGSVLSQAPWFRFPYPGQWGLPTISLAGVFGIIAGVISSMVESVGDYHACARLVGAPPPPKHAINRGIGIEGLGCLLAGAWGTGNGTTSYSENVGALGITRVGSRMVIVAAGCVLLLMGMFGKIGAAFATIPTPVIGGMFLVMFGIISAVGISNLQYVDMNSSRNLFVFGFSIFCGLAVPNWVNKNPEKLQTGILQLDQVIQVLLTTGMFVGGFLGFVLDNTIPGSLEERGLLAWGEIQEDSEETPKASKVYGLPWGIGTKFCTSSCTRILPFWPRIDHHGDEVGASQLTLCSQTSSGKHPWSVTETKM
Consider B1, for which the Km in series [7] was found to be 433 ± 113 µM.
